Reference: PubChem BioAssay (NCI)
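Protocol summary: plate cells (96-well), add compound at 5 concentrations, incubate 48 h, interpolate endpoints linearly. Abbreviation: GI50, concentration required for 50% inhibition of growth. TGI marks complete inhibition of growth.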

Experiments:
Experiment in all cases: growth of human tumour cells (NCI), 48 h
[1] = system: 786-0 renal
[2] = system: A498 renal
[3] = system: A549 NSCLC
[4] = system: ACHN renal
[5] = system: BT-549 breast
[6] = system: CAKI-1 renal
[7] = system: CCRF-CEM leukemia
[8] = system: COLO 205 colon
[9] = system: DU-145 prostate
[10] = system: EKVX NSCLC
[11] = system: HCC-2998 colon
[12] = system: HCT-116 colon
[13] = system: HCT-15 colon
[14] = system: HOP-62 NSCLC
[15] = system: HS 578T breast
[16] = system: HT29 colon
[17] = system: IGROV1 ovarian
[18] = system: K-562 leukemia
[19] = system: KM12 colon
[20] = system: LOX IMVI melanoma
[21] = system: M14 melanoma
[22] = system: MALME-3M melanoma
[23] = system: MCF7 breast
[24] = system: MDA-MB-231 breast
[25] = system: MDA-MB-435
[26] = system: MOLT-4 leukemia
[27] = system: NCI-H226 lung
[28] = system: NCI-H23 lung
[29] = system: NCI-H460 lung
[30] = system: NCI-H522 lung
[31] = system: NCI/ADR-RES ovarian
[32] = system: OVCAR-3 ovarian
[33] = system: OVCAR-4 ovarian
[34] = system: OVCAR-5 ovarian
[35] = system: OVCAR-8 ovarian
[36] = system: PC-3 prostate
[37] = system: RXF 393 renal
[38] = system: SF-268 CNS
[39] = system: SF-295 CNS
[40] = system: SF-539 CNS
[41] = system: SK-MEL-2 melanoma
[42] = system: SK-MEL-28 melanoma
[43] = system: SK-MEL-5 melanoma
[44] = system: SK-OV-3 ovarian
[45] = system: SN12C renal
[46] = system: SNB-19 CNS
[47] = system: SNB-75 CNS
[48] = system: SW-620 colon
[49] = system: T-47D breast
[50] = system: TK-10 renal
[51] = system: U251 CNS
[52] = system: UACC-257 melanoma
[53] = system: UACC-62 melanoma
[54] = system: UO-31 renal
[55] = system: HL-60(TB) leukemia
[56] = system: RPMI-8226 leukemia
[57] = system: SR leukemia
[58] = system: HOP-92 NSCLC

## COc1ccc(S(=O)(=O)N2CCN(C(=O)OCc3ccccc3)CC2C(=O)NO)cc1 (centres undefined)
[1]
  GI50: > 25 µM
  TGI: > 25 µM
[2]
  GI50: 24.6 µM
  TGI: > 25 µM
[3]
  GI50: > 25 µM
  TGI: > 25 µM
[4]
  GI50: 10.6 µM
  TGI: > 25 µM
[5]
  GI50: > 25 µM
  TGI: > 25 µM
[6]
  GI50: 10.1 µM
  TGI: > 25 µM
[7]
  GI50: 6.2 µM
  TGI: > 25 µM
[8]
  GI50: > 25 µM
  TGI: > 25 µM
[9]
  GI50: 18.7 µM
  TGI: > 25 µM
[10]
  GI50: 6.18 µM
  TGI: > 25 µM
[11]
  GI50: > 25 µM
  TGI: > 25 µM
[12]
  GI50: > 25 µM
  TGI: > 25 µM
[13]
  GI50: > 25 µM
  TGI: > 25 µM
[14]
  GI50: > 25 µM
  TGI: > 25 µM
[15]
  GI50: > 25 µM
  TGI: > 25 µM
[16]
  GI50: > 25 µM
  TGI: > 25 µM
[17]
  GI50: 4.09 µM
  TGI: > 25 µM
[18]
  GI50: 13.6 µM
  TGI: > 25 µM
[19]
  GI50: > 25 µM
  TGI: > 25 µM
[20]
  GI50: 1.28 µM
  TGI: 4.6 µM
[21]
  GI50: > 25 µM
  TGI: > 25 µM
[22]
  GI50: > 25 µM
  TGI: > 25 µM
[23]
  GI50: 13 µM
  TGI: > 25 µM
[24]
  GI50: > 25 µM
  TGI: > 25 µM
[25]
  GI50: 13.4 µM
  TGI: > 25 µM
[26]
  GI50: 5.37 µM
  TGI: 18.4 µM
[27]
  GI50: > 25 µM
  TGI: > 25 µM
[28]
  GI50: > 25 µM
  TGI: > 25 µM
[29]
  GI50: > 25 µM
  TGI: > 25 µM
[30]
  GI50: 5.16 µM
  TGI: > 25 µM
[31]
  GI50: > 25 µM
  TGI: > 25 µM
[32]
  GI50: 12.1 µM
  TGI: > 25 µM
[33]
  GI50: > 25 µM
  TGI: > 25 µM
[34]
  GI50: > 25 µM
  TGI: > 25 µM
[35]
  GI50: > 25 µM
  TGI: > 25 µM
[36]
  GI50: 17.6 µM
  TGI: > 25 µM
[37]
  GI50: > 25 µM
  TGI: > 25 µM
[38]
  GI50: > 25 µM
  TGI: > 25 µM
[39]
  GI50: > 25 µM
  TGI: > 25 µM
[40]
  GI50: > 25 µM
  TGI: > 25 µM
[41]
  GI50: > 25 µM
  TGI: > 25 µM
[42]
  GI50: > 25 µM
  TGI: > 25 µM
[43]
  GI50: > 25 µM
  TGI: > 25 µM
[44]
  GI50: > 25 µM
  TGI: > 25 µM
[45]
  GI50: > 25 µM
  TGI: > 25 µM
[46]
  GI50: > 25 µM
  TGI: > 25 µM
[47]
  GI50: > 25 µM
  TGI: > 25 µM
[48]
  GI50: > 25 µM
  TGI: > 25 µM
[49]
  GI50: 12.1 µM
  TGI: > 25 µM
[50]
  GI50: 10.9 µM
  TGI: > 25 µM
[51]
  GI50: > 25 µM
  TGI: > 25 µM
[52]
  GI50: > 25 µM
  TGI: > 25 µM
[53]
  GI50: > 25 µM
  TGI: > 25 µM
[54]
  GI50: 17 µM
  TGI: > 25 µM

## COc1cc(-c2cc(/C=C/C(=O)c3ccc4c(c3)OCO4)[nH]n2)cc(OC)c1OC
[1]
  GI50: 2.33 µM
  TGI: 5.82 µM
[2]
  GI50: 2.76 µM
  TGI: 15.4 µM
[3]
  GI50: 4.32 µM
  TGI: > 100 µM
[4]
  GI50: 1.88 µM
  TGI: 3.71 µM
[6]
  GI50: 5.51 µM
  TGI: > 100 µM
[7]
  GI50: 1.57 µM
  TGI: 5.96 µM
[8]
  GI50: 1.87 µM
  TGI: 3.85 µM
[9]
  GI50: 2.72 µM
  TGI: 9.56 µM
[11]
  GI50: 1.95 µM
  TGI: 3.54 µM
[13]
  GI50: 2.12 µM
  TGI: 7.19 µM
[55]
  GI50: 2.17 µM
  TGI: 6.36 µM
[14]
  GI50: 2.18 µM
  TGI: 5.17 µM
[15]
  GI50: 3.71 µM
  TGI: 78.7 µM
[16]
  GI50: 2.18 µM
  TGI: 4.55 µM
[17]
  GI50: 5 µM
  TGI: 62.1 µM
[18]
  GI50: 3.2 µM
  TGI: 9.81 µM
[20]
  GI50: 1.82 µM
  TGI: 3.78 µM
[21]
  GI50: 3.86 µM
  TGI: > 100 µM
[22]
  GI50: 4.42 µM
  TGI: 20.8 µM
[24]
  GI50: 3.5 µM
  TGI: > 100 µM
[26]
  GI50: 2.98 µM
  TGI: 9.15 µM
[27]
  GI50: 3.31 µM
  TGI: > 100 µM
[28]
  GI50: 20.2 µM
  TGI: > 100 µM
[29]
  GI50: 2.12 µM
  TGI: 5.1 µM
[30]
  GI50: 1.03 µM
  TGI: 2.35 µM
[31]
  GI50: 4.23 µM
  TGI: > 100 µM
[32]
  GI50: 3.38 µM
  TGI: 12.3 µM
[33]
  GI50: 3.8 µM
  TGI: > 100 µM
[34]
  GI50: 3.37 µM
  TGI: 93.5 µM
[35]
  GI50: 2.85 µM
  TGI: 11.1 µM
[36]
  GI50: 2.81 µM
  TGI: 13.7 µM
[56]
  GI50: 0.51 µM
  TGI: 2.94 µM
[37]
  GI50: 1.48 µM
  TGI: 2.87 µM
[38]
  GI50: 2.97 µM
  TGI: 14.5 µM
[40]
  GI50: 2.07 µM
  TGI: 5.73 µM
[41]
  GI50: 10.3 µM
  TGI: 28.9 µM
[42]
  GI50: 2.48 µM
  TGI: 7.34 µM
[43]
  GI50: 4.51 µM
  TGI: > 100 µM
[44]
  GI50: 5.76 µM
  TGI: 26.1 µM
[45]
  GI50: 3.94 µM
  TGI: > 100 µM
[46]
  GI50: 4.3 µM
  TGI: > 100 µM
[57]
  GI50: 0.552 µM
  TGI: > 100 µM
[49]
  GI50: 2.51 µM
  TGI: 17 µM
[50]
  GI50: 2.33 µM
  TGI: 5.73 µM
[51]
  GI50: 2.01 µM
  TGI: 5.45 µM
[52]
  GI50: 2.46 µM
  TGI: 40.3 µM
[53]
  GI50: 4.67 µM
  TGI: > 100 µM
[54]
  GI50: 1.91 µM
  TGI: 5.44 µM

## c1ccc2c(c1)ccc1ncccc12
[1]
  TGI: > 100 µM
[2]
  TGI: > 100 µM
[3]
  TGI: > 100 µM
[4]
  TGI: > 100 µM
[5]
  TGI: > 100 µM
[6]
  TGI: > 100 µM
[8]
  TGI: > 100 µM
[9]
  TGI: > 100 µM
[10]
  TGI: > 100 µM
[11]
  TGI: > 100 µM
[12]
  TGI: > 100 µM
[13]
  TGI: > 100 µM
[55]
  TGI: > 100 µM
[14]
  TGI: > 100 µM
[58]
  TGI: > 100 µM
[15]
  TGI: > 100 µM
[16]
  TGI: > 100 µM
[17]
  TGI: > 100 µM
[18]
  TGI: > 100 µM
[19]
  TGI: > 100 µM
[20]
  TGI: > 100 µM
[21]
  TGI: > 100 µM
[22]
  TGI: > 100 µM
[23]
  TGI: > 100 µM
[24]
  TGI: > 100 µM
[25]
  TGI: > 100 µM
[26]
  TGI: > 100 µM
[27]
  TGI: > 100 µM
[28]
  TGI: > 100 µM
[29]
  TGI: > 100 µM
[30]
  TGI: > 100 µM
[31]
  TGI: > 100 µM
[32]
  TGI: > 100 µM
[33]
  TGI: > 100 µM
[34]
  TGI: > 100 µM
[35]
  TGI: > 100 µM
[36]
  TGI: > 100 µM
[56]
  TGI: > 100 µM
[37]
  TGI: > 100 µM
[38]
  TGI: > 100 µM
[39]
  TGI: > 100 µM
[40]
  TGI: > 100 µM
[41]
  TGI: > 100 µM
[42]
  TGI: > 100 µM
[43]
  TGI: > 100 µM
[45]
  TGI: > 100 µM
[46]
  TGI: > 100 µM
[47]
  TGI: > 100 µM
[57]
  TGI: > 100 µM
[48]
  TGI: > 100 µM
[49]
  TGI: > 100 µM
[50]
  TGI: > 100 µM
[51]
  TGI: > 100 µM
[52]
  TGI: > 100 µM
[53]
  TGI: > 100 µM
[54]
  TGI: > 100 µM

## N=C(N)c1ccc(-c2ccc(-c3cc(Cl)cc(Cl)c3)s2)cc1
[55]
  GI50: 1.07 µM
  TGI: 2.8 µM
[57]
  GI50: 0.284 µM
  TGI: > 100 µM
